Source: US20260092061A1, “COMPOUNDS FOR TARGETED PROTEIN DEGRADATION” (Amphista Therapeutics Limited, priority 2022, published 2026)

Target: T1, BRD9 (Homo sapiens, UniProt Q9H8M2)
T1 sequence (Q9H8M2 1-597): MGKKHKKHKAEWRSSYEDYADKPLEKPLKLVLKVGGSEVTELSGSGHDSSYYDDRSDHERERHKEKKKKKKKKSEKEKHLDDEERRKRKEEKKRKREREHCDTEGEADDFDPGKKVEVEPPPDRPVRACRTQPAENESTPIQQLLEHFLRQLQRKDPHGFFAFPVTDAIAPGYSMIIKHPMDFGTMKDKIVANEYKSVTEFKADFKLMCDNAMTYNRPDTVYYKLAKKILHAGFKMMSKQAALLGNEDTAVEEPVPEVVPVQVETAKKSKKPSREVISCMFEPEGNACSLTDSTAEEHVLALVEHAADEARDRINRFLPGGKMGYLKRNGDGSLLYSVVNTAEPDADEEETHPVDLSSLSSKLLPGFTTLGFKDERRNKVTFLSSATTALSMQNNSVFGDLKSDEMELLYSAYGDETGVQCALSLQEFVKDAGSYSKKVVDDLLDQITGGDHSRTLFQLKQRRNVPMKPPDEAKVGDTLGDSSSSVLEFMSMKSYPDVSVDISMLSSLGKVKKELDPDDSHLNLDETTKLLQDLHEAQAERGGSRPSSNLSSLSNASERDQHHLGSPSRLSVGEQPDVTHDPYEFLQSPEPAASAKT
Assay: Degradation of BRD9 (IF), immunofluorescence in MV4-11 cells, 24 hours (Assay Protocol 2)
Assay type: cell-based
Set-up: A suspension of MV4-11 cells (ATCC CRL-9591) was prepared; host or cells: MV4-11
Settings: BRD9 degradation; for DC50: Assay protocol 2, read-out: DC50; for Dmax: MV4-11, Assay protocol 2, read-out: Dmax
Method in brief: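 % BRD9 remaining, scaled between DMSO (high) and 100 nM CFT-8634 (low) control wells, derives from mean Alexa 647 contrast in central nuclei by high-content imaging. MV4-11 cells had 24 h compound exposure at 37° C. before PFA fixation, Triton permeabilisation and anti-BRD9 E4Q3F immunostaining.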

| Structure (SMILES) | DC50 | Dmax |
| --- | --- | --- |
| COc1cc(-c2cn(C)c(=O)c(C)c2C)cc(OC)c1CN1CCN(Cc2cccc3c2CCN(C(=O)/C(C#N)=C/C(C)(C)C)C3C)CC1=O (mixture of isomers) [Compound B142] | 1.25 to 10 nM | > 75% |
| COc1cc(-c2cn(C)c(=O)c(C)c2C)cc(OC)c1CN1CCN(Cc2cccc3c2CCN(C(=O)/C(C#N)=C/C2(C)CCCCC2)C3C)C2(CC2)C1 (mixture of isomers) [Compound B143, (E/Z)-2-(5-((7-(2,6-dimethoxy-4-(1,4,5-trimethyl-6-oxo-1,6-dihydropyridin-3-yl)benzyl)-4,7-diazaspiro[2.5]octan-4-yl)methyl)-1-methyl-1,2,3,4-tetrahydroisoquinoline-2-carbonyl)-3-(1-methylcyclohexyl)acrylonitrile] | 10 to 25 nM | 70 to 75% |
| COc1cc(-c2cn(C)c(=O)c(C)c2C)ccc1CN1CCN(Cc2cccc3c2CCN(C(=O)/C(C#N)=C/C(C)(C)C)C3C)C2(CC2)C1 (mixture of isomers) [Compound B147, (E/Z)-2-(5-((7-(2-methoxy-4-(1,4,5-trimethyl-6-oxo-1,6-dihydropyridin-3-yl)benzyl)-4,7-diazaspiro[2.5]octan-4-yl)methyl)-1-methyl-1,2,3,4-tetrahydroisoquinoline-2-carbonyl)-4,4-dimethylpent-2-enenitrile] | 1.25 to 10 nM | > 75% |
| COc1cc(-c2cn(C)c(=O)c(C)c2C)cc(OC)c1CN1CCN(Cc2cccc3c2CCN(C(=O)/C(C#N)=C/C(C)(C)C)C3C)C2CC21 (mixture of isomers) [Compound B148, (E/Z)-2-(5-((5-(2,6-dimethoxy-4-(1,4,5-trimethyl-6-oxo-1,6-dihydropyridin-3-yl)benzyl)-2,5-diazabicyclo[4.1.0]heptan-2-yl)methyl)-1-methyl-1,2,3,4-tetrahydroisoquinoline-2-carbonyl)-4,4-dimethylpent-2-enenitrile] | 1.25 to 10 nM | 40 to 70% |
| COc1cc(-c2cn(C)c(=O)c(C)c2C)cc(OC)c1CN1CCN(Cc2cccc3c2CCN(C(=O)/C(C#N)=C/C(C)(C)C(F)(F)F)C3C)C2(CC2)C1 (mixture of isomers) [Compound B152, (E/Z)-2-(5-((7-(2,6-dimethoxy-4-(1,4,5-trimethyl-6-oxo-1,6-dihydropyridin-3-yl)benzyl)-4,7-diazaspiro[2.5]octan-4-yl)methyl)-1-methyl-1,2,3,4-tetrahydroisoquinoline-2-carbonyl)-5,5,5-trifluoro-4,4-dimethylpent-2-enenitrile] | 1.25 to 10 nM | > 75% |
| COc1cc(-c2cn(C)c(=O)c(C)c2C)cc(OC)c1CN1CCN(CCc2cccc3c2CCN(C(=O)/C(C#N)=C/C(C)(C)C)C3C)C2(CC2)C1 (mixture of isomers) [Compound B154] | 10 to 25 nM | 40 to 70% |
| COc1cc(-c2cn(C)c(=O)c(C)c2C)cc(OC)c1CN1CCN(Cc2cccc3c2CCN(C(=O)/C(C#N)=C/C(C)(C)C)C3C)C(=O)C1 (mixture of isomers) [Compound B155, (E/Z)-2-(5-((4-(2,6-dimethoxy-4-(1,4,5-trimethyl-8-oxo-1,6-dihydropyridin-3-yl)benzyl)-2-oxopiperazin-1-yl)methyl)-1-methyl-1,2,3,4-tetrahydroisoquinoline-2-carbonyl)-4,4-dimethylpent-2-enenitrile] | 25 to 1000 nM | 40 to 70% |
| COc1cc(-c2cn(C)c(=O)c(C)c2C)cc(OC)c1CN1CCC(Cc2cccc3c2CCN(C(=O)/C(C#N)=C/C(C)(C)C)C3C)CC1 (mixture of isomers) [Compound B156, (E/Z)-2-(5-((1-(2,6-dimethoxy-4-(1,4,5-trimethyl-6-oxo-1,6-dihydropyridin-3-yl)benzyl)piperidin-4-yl)methyl)-1-methyl-1,2,3,4-tetrahydroisoquinoline-2-carbonyl)-4,4-dimethylpent-2-enenitrile] | 1.25 to 10 nM | 40 to 70% |
| COc1cc(-c2cn(C)c(=O)c3[nH]ncc23)cc(OC)c1CN1CCN(Cc2cccc3c2CCN(C(=O)/C(C#N)=C/C(C)(C)C)C3C)CC12CC2 (mixture of isomers) [Compound B158, (E/Z)-2-(5-((4-(2,6-dimethoxy-4-(6-methyl-7-oxo-6,7-dihydro-1H-pyrazolo[3,4-c]pyridin-4-yl)benzyl)-4,7-diazaspiro[2.5]octan-7-yl)methyl)-1-methyl-1,2,3,4-tetrahydroisoquinoline-2-carbonyl)-4,4-dimethylpent-2-enenitrile] | < 1.25 nM | > 75% |
| COc1cc(-c2cn(C)c(=O)c(C)c2C)cc(OC)c1CN1CCN(Cc2cccc3c2CCN(C(=O)/C(C#N)=C/C(C)(C)C)C3C)CC1(C)C (mixture of isomers) [Compound B159, (E/Z)-2-(5-((4-(2,6-dimethoxy-4-(1,4,5-trimethyl-6-oxo-1,6-dihydropyridin-3-yl)benzyl)-3,3-dimethylpiperazin-1-yl)methyl)-1-methyl-1,2,3,4-tetrahydroisoquinoline-2-carbonyl)-4,4-dimethylpent-2-enenitrile] | < 1.25 nM | 40 to 70% |
| COc1cc(-c2cn(C)c(=O)c(C)c2C)cc(OC)c1CN1CCN(Cc2cccc3c2CCN(C(=O)/C(C#N)=C/C2(C(F)(F)F)CCC2)C3C)C2(CC2)C1 (mixture of isomers) [Compound B160, (E/Z)-2-[5-[[7-[[2,6-dimethoxy-4-(1,4,5-trimethyl-6-oxo-3-pyridyl)phenyl]methyl]-4,7-diazaspiro[2.5]octan-4-yl]methyl]-1-methyl-3,4-dihydro-1H-isoquinoline-2-carbonyl]-3-[1-(trifluoromethyl)cyclobutyl]prop-2-enenitrile] | 1.25 to 10 nM | > 75% |

More lines, now with the values ahead:

| DC50 | Dmax | Structure (SMILES) |
| --- | --- | --- |
| < 1.25 nM | > 75% | COc1cc(-c2cn(C)c(=O)c(C)c2C)cc(OC)c1CN1CCN(Cc2cccc3c2CCN(C(=O)/C(C#N)=C\C24CC(OC)(C2)C4)C3C)C2(CC2)C1 (mixture of isomers) [Compound B141, (E/Z)-2-(5-((7-(2,6-dimethoxy-4-(1,4,5-trimethyl-6-oxo-1,6-dihydropyridin-3-yl)benzyl)-4,7-diazaspiro[2.5]octan-4-yl)methyl)-1-methyl-1,2,3,4-tetrahydroisoquinoline-2-carbonyl)-3-(3-methoxybicyclo[1.1.1]pentan-1-yl)acrylonitrile] |
| < 1.25 nM | > 75% | COc1cc(-c2cn(C)c(=O)c(C)c2C)cc(OC)c1CN1CCN(Cc2cccc3c2CCN(C(=O)/C(C#N)=C/C2(CF)CC2)C3C)C2(CC2)C1 (mixture of isomers) [Compound B144, (E/Z)-2-(5-((7-(2,6-dimethoxy-4-(1,4,5-trimethyl-6-oxo-1,6-dihydropyridin-3-yl)benzyl)-4,7-diazaspiro[2.5]octan-4-yl)methyl)-1-methyl-1,2,3,4-tetrahydroisoquinoline-2-carbonyl)-3-(1-(fluoromethyl)cyclopropyl)acrylonitrile] |
| < 1.25 nM | > 75% | COc1cc(-c2cn(C)c(=O)c(C)c2C)cc(OC)c1CN1CCN(Cc2cccc3c2CCN(C(=O)/C(C#N)=C/C2(C)CCCC2)C3C)C2(CC2)C1 (mixture of isomers) [Compound B145, (E/Z)-2-(5-((7-(2,6-dimethoxy-4-(1,4,5-trimethyl-6-oxo-1,6-dihydropyridin-3-yl)benzyl)-4,7-diazaspiro[2.5]octan-4-yl)methyl)-1-methyl-1,2,3,4-tetrahydroisoquinoline-2-carbonyl)-3-(1-methylcyclopentyl)acrylonitrile] |
| < 1.25 nM | > 75% | COc1cc(-c2cn(C)c(=O)c(C)c2C)cc(OC)c1CN1CCN(Cc2cccc3c2CCN(C(=O)/C(C#N)=C/C2(C)CCC2)C3C)C2(CC2)C1 (mixture of isomers) [Compound B149, (E/Z)-2-(5-((7-(2,6-dimethoxy-4-(1,4,5-trimethyl-6-oxo-1,6-dihydropyridin-3-yl)benzyl)-4,7-diazaspiro[2.5]octan-4-yl)methyl)-1-methyl-1,2,3,4-tetrahydroisoquinoline-2-carbonyl)-3-(1-methylcyclobutyl)acrylonitrile] |
| < 1.25 nM | > 75% | COc1cc(-c2cn(C)c(=O)c(C)c2C)cc(OC)c1CN1CCN(Cc2cccc3c2CCN(C(=O)/C(C#N)=C/C2(C(F)(F)F)CC2)C3C)C2(CC2)C1 (mixture of isomers) [Compound B153, (E/Z)-2-[5-[[7-[[2,6-dimethoxy-4-(1,4,5-trimethyl-6-oxo-3-pyridyl)phenyl]methyl]-4,7-diazaspiro[2.5]octan-4-yl]methyl]-1-methyl-3,4-dihydro-1H-isoquinoline-2-carbonyl]-3-[1-(trifluoromethyl)cyclopropyl]prop-2-enenitrile] |
